Measurements as given in PubChem BioAssay AID330 (DTP/NCI, 2004).
Where “and” joins values, the source holds several entries; their conditions need not be identical. Equal entries are not always repeated. Inconclusive results and toxic doses are left out.

Test system: P388 leukemia ip, CD2F1 mice, survival T/C
Assay: NCI In Vivo Anticancer Drug Screen. Data for tumor model P388 Leukemia (intraperitoneal) in CD2F1 (CDF1) mice
Conditions: endpoint: median survival time, higher = longer survival
In short: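 Mice carrying the transplanted tumor received test compound or vehicle. Survival was recorded in each group, and the value is the treated-group measurement divided by that of the vehicle-treated control group.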

[1] = dose: 25.0 mg/kg/injection, schedule: Q01DX009 (ip), vehicle: saline
[2] = dose: 50.0 mg/kg/injection, schedule: Q01DX009 (ip), vehicle: saline
[3] = dose: 25.0 mg/kg/injection, schedule: Q01DX009 (ip), vehicle: suspension in saline
[4] = dose: 50.0 mg/kg/injection, schedule: Q01DX009 (ip), vehicle: suspension in saline
[5] = dose: 100.0 mg/kg/injection, schedule: Q01DX009 (ip), vehicle: suspension in saline
[6] = dose: 6.25 mg/kg/injection, schedule: Q01DX009 (ip), vehicle: saline
[7] = dose: 12.5 mg/kg/injection, schedule: Q01DX009 (ip), vehicle: saline

## C=C1C(=O)OC2/C=C(\C)C(O)C/C=C(/C)C(OC(=O)/C(C)=C\C)C(O)C12 (centres undefined)
dose: 6125.0 micrograms/kg/injection, schedule: Q01DX005 (ip), vehicle: Klucel (hydroxypropylcellulose) (HPC)
  T/C: 110 % of control
dose: 12250.0 micrograms/kg/injection, schedule: Q01DX005 (ip), vehicle: Klucel (hydroxypropylcellulose) (HPC)
  T/C: 115 % of control
dose: 24500.0 micrograms/kg/injection, schedule: Q01DX005 (ip), vehicle: Klucel (hydroxypropylcellulose) (HPC)
  T/C: 109 % of control
dose: 49000.0 micrograms/kg/injection, schedule: Q01DX005 (ip), vehicle: Klucel (hydroxypropylcellulose) (HPC)
  T/C: 114 % of control

## COc1cc(C(O)Cc2ccccc2)cc(OC)c1OC (centres undefined)
dose: 31.25 mg/kg/injection, schedule: Q01DX009 (ip), vehicle: saline + Tween-80 + alcohol
  T/C: 98 % of control
dose: 62.5 mg/kg/injection, schedule: Q01DX009 (ip), vehicle: saline + Tween-80 + alcohol
  T/C: 109 % of control
dose: 125.0 mg/kg/injection, schedule: Q01DX009 (ip), vehicle: saline + Tween-80 + alcohol
  T/C: 91 % of control
dose: 250.0 mg/kg/injection, schedule: Q01DX009 (ip), vehicle: saline + Tween-80 + alcohol
  T/C: 89 % of control

## Cc1cc(Br)ccc1N=c1scc(-c2ccc(Cl)cc2)n1C
dose: 50.0 mg/kg/injection, schedule: Q01DX009 (ip), vehicle: Klucel (hydroxypropylcellulose) (HPC)
  T/C: 95 % of control
dose: 100.0 mg/kg/injection, schedule: Q01DX009 (ip), vehicle: Klucel (hydroxypropylcellulose) (HPC)
  T/C: 93 % of control
dose: 200.0 mg/kg/injection, schedule: Q01DX009 (ip), vehicle: Klucel (hydroxypropylcellulose) (HPC)
  T/C: 91 % of control

## CO/C=C1\OC(=O)C=C1OC
dose: 50.0 mg/kg/injection, schedule: Q01DX005 (ip), vehicle: saline with Tween-80
  T/C: 101 % of control
dose: 100.0 mg/kg/injection, schedule: Q01DX005 (ip), vehicle: saline with Tween-80
  T/C: 108 % of control
dose: 200.0 mg/kg/injection, schedule: Q01DX005 (ip), vehicle: saline with Tween-80
  T/C: 114 % of control

## COC(=O)C[CH2][Sn]([CH2]CC(=O)OC)([c]1ccccc1)[c]1ccccc1
dose: 50.0 mg/kg/injection, schedule: Q01DX005 (ip), vehicle: saline
  T/C: 100 % of control
dose: 100.0 mg/kg/injection, schedule: Q01DX005 (ip), vehicle: saline
  T/C: 100 % of control
dose: 200.0 mg/kg/injection, schedule: Q01DX005 (ip), vehicle: saline
  T/C: 97 % of control

## COC1C(/C=C/C(C)=O)OC2OC(C)(C)OC21 (centres undefined)
[1]
  T/C: 106 % of control
[2]
  T/C: 107 % of control and 112 % of control

## [C-]#[N+]C1CC2CCC1C2.[C-]#[N+]C1CC2CCC1C2.[C-]#[N+]C1CC2CCC1C2.[C-]#[N+]C1CC2CCC1C2.[C-]#[N+]C1CC2CCC1C2.[C-]#[N+]C1CC2CCC1C2.[Mn] (centres undefined)
dose: 0.19 mg/kg/injection, schedule: Q01DX009 (ip), vehicle: saline with Tween-80
  T/C: 115 % of control
dose: 0.38 mg/kg/injection, schedule: Q01DX009 (ip), vehicle: saline with Tween-80
  T/C: 156 % of control

## ClCCN(CCCl)c1ccc(/C=N/Nc2c3ccccc3nc3ccccc23)cc1
dose: 6.25 mg/kg/injection, schedule: Q01DX009 (ip), vehicle: DMSO
  T/C: 88 % of control
dose: 12.5 mg/kg/injection, schedule: Q01DX009 (ip), vehicle: DMSO
  T/C: 90 % of control

## O=NN(CCCl)C(=O)N1CCCOC1=O
dose: 12.5 mg/kg/injection, schedule: Q01DX001 (ip), vehicle: saline with Tween-80
  T/C: 115 % of control and 121 % of control
dose: 25.0 mg/kg/injection, schedule: Q01DX001 (ip), vehicle: saline with Tween-80
  T/C: 116 % of control

## Cc1cc2nc3[nH]c4ccccc4c3nc2cc1C
[3]
  T/C: 94 % of control
[4]
  T/C: 92 % of control
[5]
  T/C: 94 % of control
dose: 200.0 mg/kg/injection, schedule: Q01DX009 (ip), vehicle: suspension in saline
  T/C: 92 % of control

## C=CCSc1nnc(-c2ccc(C(C)(C)C)cc2)n1-c1cccc(C(F)(F)F)c1
dose: 60.0 mg/kg/injection, schedule: Q01DX005 (ip), vehicle: saline with Tween-80
  T/C: 100 % of control
dose: 120.0 mg/kg/injection, schedule: Q01DX005 (ip), vehicle: saline with Tween-80
  T/C: 100 % of control
dose: 240.0 mg/kg/injection, schedule: Q01DX005 (ip), vehicle: saline with Tween-80
  T/C: 94 % of control

## Nc1ccccc1C(=O)On1nnc2ccccc2c1=O
dose: 100.0 mg/kg/injection, schedule: Q01DX001 (ip), vehicle: Klucel (hydroxypropylcellulose) (HPC)
  T/C: 103 % of control
dose: 200.0 mg/kg/injection, schedule: Q01DX001 (ip), vehicle: Klucel (hydroxypropylcellulose) (HPC)
  T/C: 103 % of control
dose: 400.0 mg/kg/injection, schedule: Q01DX001 (ip), vehicle: Klucel (hydroxypropylcellulose) (HPC)
  T/C: 100 % of control

## Cn1c(=O)c2conc2n(-c2ccc(Cl)cc2)c1=O
dose: 25.0 mg/kg/injection, schedule: Q01DX009 (ip), vehicle: saline with Tween-80
  T/C: 100 % of control
dose: 50.0 mg/kg/injection, schedule: Q01DX009 (ip), vehicle: saline with Tween-80
  T/C: 103 % of control
dose: 100.0 mg/kg/injection, schedule: Q01DX009 (ip), vehicle: saline with Tween-80
  T/C: 95 % of control

## O=[N+]([O-])c1nccn1C1OC(CO)C(O)C1O (centres undefined)
[6]
  T/C: 98 % of control
[7]
  T/C: 99 % of control
[1]
  T/C: 104 % of control
[2]
  T/C: 104 % of control

## CC1=NN(c2cc(Cl)c(S(=O)(=O)O)cc2Cl)C(=O)C1N=Nc1ccc(S(=O)(=O)O)cc1 (centres undefined)
[2]
  T/C: 103 % of control
dose: 100.0 mg/kg/injection, schedule: Q01DX009 (ip), vehicle: saline
  T/C: 100 % of control
dose: 200.0 mg/kg/injection, schedule: Q01DX009 (ip), vehicle: saline
  T/C: 99 % of control

## COc1cc(OC)c(/C=N/Nc2cc(C)nc3cc4c(cc23)OCO4)c(OC)c1
dose: 1.56 mg/kg/injection, schedule: Q01DX005 (ip), vehicle: Klucel (hydroxypropylcellulose) (HPC)
  T/C: 106 % of control
dose: 3.12 mg/kg/injection, schedule: Q01DX005 (ip), vehicle: Klucel (hydroxypropylcellulose) (HPC)
  T/C: 97 % of control
dose: 6.25 mg/kg/injection, schedule: Q01DX005 (ip), vehicle: Klucel (hydroxypropylcellulose) (HPC)
  T/C: 102 % of control and 91 % of control
dose: 12.5 mg/kg/injection, schedule: Q01DX005 (ip), vehicle: Klucel (hydroxypropylcellulose) (HPC)
  T/C: 100 % of control and 87 % of control
dose: 25.0 mg/kg/injection, schedule: Q01DX005 (ip), vehicle: Klucel (hydroxypropylcellulose) (HPC)
  T/C: 103 % of control

## C=C1CC/C=C(/C)C(=O)C(OC(C)=O)C2C1CC2(C)C (centres undefined)
dose: 1.75 mg/kg/injection, schedule: Q01DX009 (ip), vehicle: saline + Tween-80 + alcohol
  T/C: 105 % of control
dose: 1.75 mg/kg/injection, schedule: Q01DX009 (ip), vehicle: saline + alcohol
  T/C: 105 % of control and 111 % of control
dose: 3.5 mg/kg/injection, schedule: Q01DX009 (ip), vehicle: saline + Tween-80 + alcohol
  T/C: 102 % of control
dose: 3.5 mg/kg/injection, schedule: Q01DX009 (ip), vehicle: saline + alcohol
  T/C: 102 % of control and 103 % of control and 114 % of control
dose: 7.0 mg/kg/injection, schedule: Q01DX009 (ip), vehicle: saline + Tween-80 + alcohol
  T/C: 111 % of control
dose: 7.0 mg/kg/injection, schedule: Q01DX009 (ip), vehicle: saline + alcohol
  T/C: 101 % of control and 105 % of control and 114 % of control
dose: 14.0 mg/kg/injection, schedule: Q01DX009 (ip), vehicle: saline + Tween-80 + alcohol
  T/C: 116 % of control
dose: 14.0 mg/kg/injection, schedule: Q01DX009 (ip), vehicle: saline + alcohol
  T/C: 111 % of control and 113 % of control and 114 % of control
dose: 28.0 mg/kg/injection, schedule: Q01DX009 (ip), vehicle: saline + Tween-80 + alcohol
  T/C: 120 % of control
dose: 28.0 mg/kg/injection, schedule: Q01DX009 (ip), vehicle: saline + alcohol
  T/C: 111 % of control and 115 % of control and 121 % of control
dose: 56.0 mg/kg/injection, schedule: Q01DX009 (ip), vehicle: saline + Tween-80 + alcohol
  T/C: 116 % of control

## O=C1NCN(c2ccccc2)C12CCNCC2
dose: 25.0 mg/kg/injection, schedule: Q04DX003 (ip), vehicle: saline sonified
  T/C: 109 % of control
dose: 50.0 mg/kg/injection, schedule: Q04DX003 (ip), vehicle: saline sonified
  T/C: 109 % of control
dose: 100.0 mg/kg/injection, schedule: Q04DX003 (ip), vehicle: saline sonified
  T/C: 95 % of control

## CC(=O)Nc1c(Cl)c(Cl)c2c(c1Cl)Cc1cc(Cl)ccc1-2
[7]
  T/C: 103 % of control
[1]
  T/C: 104 % of control
[3]
  T/C: 91 % of control
[2]
  T/C: 107 % of control
[4]
  T/C: 87 % of control
[5]
  T/C: 91 % of control

## CCC(=N\NC(=S)NCCN(CC)CC)/C(C)=N/NC(=S)NCCN(CC)CC
dose: 1.56 mg/kg/injection, schedule: Q01DX009 (ip), vehicle: saline
  T/C: 94 % of control
dose: 3.13 mg/kg/injection, schedule: Q01DX009 (ip), vehicle: saline
  T/C: 118 % of control
[6]
  T/C: 106 % of control
[7]
  T/C: 101 % of control
